Test results published in patent publication US20250179047A1, “5-[7-(3,4-DIHYDRO-1H-ISOQUINOLINE-2-CARBONYL)-1,2,3,4 TETRAHYDROISOQUINOLIN-6-YL]-1H-PYRROLE-3-CARBOXAMIDE DERIVATIVES, PHARMACEUTICAL COMPOSITIONS CONTAINING THEM AND THEIR USES AS PRO-APOPTOTIC AGENTS” (LES LABORATOIRES SERVIER, priority 2022, published 2025).

Experiments:
[1] = molecular target: BCL2 D103Y (Homo sapiens, UniProt P10415, D103Y); assay: TR-FRET competitive binding assay, BCL2 D103Y; conditions: Ki determined from IC50, read-out: TR_FRET EKI_Bcl2 D103Y
Outline: (§1)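 Terbium-labelled N-terminal Halo-fusion BCL2 or BCLXL (E. coli), 0.5 nM, competed against fluorescein-labelled PUMA peptide (2 or 20 nM) for 2 h at 23° C in 50 mM Hepes pH 7.5, 150 mM NaCl, 5% DMSO. TR-FRET 520/495 nm ratio gave IC50 by four-parameter fit; Ki derived from IC50.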

[2] = molecular target: BCL2 WT (Homo sapiens (Human), UniProt P10415); assay: TR-FRET competitive binding assay, BCL2 WT; conditions: Ki determined from IC50, read-out: TR_FRET EKI_Bcl2 WT
Outline: as §1

[3] = tested on: BCL2 G101V; assay: TR-FRET competitive binding assay, BCL2 G101V; set-up: species or system human; conditions: ratio Ki BCL2 G101V / Ki BCL2 WT
Outline: as §1

[4] = molecular target: BCL2 G101V (Homo sapiens, UniProt P10415, G101V); assay: TR-FRET competitive binding assay, BCL2 G101V; conditions: BCL2 G101V; Ki determined from IC50; read-out: TR_FRET EKI_Bcl2 G101V
Outline: as §1

[5] = molecular target: BCLXL WT (Homo sapiens (Human), UniProt Q07817); assay: TR-FRET competitive binding assay, BCLXL WT; conditions: for Ki: BCLXL WT, Ki determined from IC50, read-out: TR_FRET EKI BclxL; for TR_FRET EKI BCLxL/WT selectivty ratio: ratio Ki BCLxL / Ki BCL2 WT
Outline: as §1

[6] = molecular target: BCL2 D111A (Homo sapiens, UniProt P10415, D111A); assay: TR-FRET competitive binding assay, BCL2 D111A; conditions: Ki determined from IC50, read-out: TR_FRET EKI_Bcl2 D111A
Outline: as §1

[7] = tested on: KMS-12-PE Bcl-2 G101V; assay: In vitro cytotoxicity CellTiter-Glo 48 h, KMS-12-PE Bcl-2 G101V; format: cell-based; conditions: for Ratio (G101V/WT): C50 KMS-12-PE Bcl-2 G101V over C50 KMS-12-PE Bcl-2 WT; for IC50: Homo sapiens, KMS-12-PE, 48 h, CellTiter-Glo, C50 = concentration needed to reach 50% of the cellular viability
Outline: (§2)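 Potency is expressed as C50, the compound concentration at which viability of engineered KMS-12-PE cells (Bcl-2 wild type or G101V) falls to 50%, determined from CellTiter-Glo luminescence after 48 h of treatment over 11 concentrations.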

[8] = tested on: KMS-12-PE Bcl-2 WT; assay: In vitro cytotoxicity CellTiter-Glo 48 h, KMS-12-PE Bcl-2 WT; format: cell-based; conditions: Homo sapiens, KMS-12-PE, C50 = concentration needed to reach 50% of the cellular viability
Outline: as §2

[9] = molecular target: BCL2 F104I (Homo sapiens, UniProt P10415, F104I); assay: TR-FRET competitive binding assay, BCL2 F104I; conditions: Ki determined from IC50, read-out: TR_FRET EKI_Bcl2 F104I
Outline: as §1

BCLXL WT, sequence (Q07817 other isoform, or with tags, fused parts or gaps): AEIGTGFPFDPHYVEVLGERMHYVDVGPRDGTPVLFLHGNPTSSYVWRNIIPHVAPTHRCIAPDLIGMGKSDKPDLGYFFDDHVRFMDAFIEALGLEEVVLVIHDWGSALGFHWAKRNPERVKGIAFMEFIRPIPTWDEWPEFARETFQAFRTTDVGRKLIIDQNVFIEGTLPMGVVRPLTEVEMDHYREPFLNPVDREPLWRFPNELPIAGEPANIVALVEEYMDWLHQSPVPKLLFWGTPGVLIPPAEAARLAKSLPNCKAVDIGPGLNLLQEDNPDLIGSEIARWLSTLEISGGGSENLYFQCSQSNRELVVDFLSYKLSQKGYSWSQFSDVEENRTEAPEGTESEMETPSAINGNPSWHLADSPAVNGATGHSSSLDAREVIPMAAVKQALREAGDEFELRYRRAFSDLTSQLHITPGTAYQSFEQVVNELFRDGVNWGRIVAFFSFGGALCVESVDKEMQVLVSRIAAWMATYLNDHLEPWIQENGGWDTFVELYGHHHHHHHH

In the case of `Cc1c(N(C(=O)c2cc(-c3cc4c(cc3C(=O)N3Cc5ccccc5C[C@H]3CN3CCCCC3)CN(C(=O)Cc3ccc(OCCN(C)C5CC5)cc3)CC4)n(C)c2C)c2ccc(O)cc2)cc(C#N)n1C` [Example 102, N-(5-cyano-1,2-dimethyl-1H-pyrrol-3-yl)-5-{2-[2-(4-{2-[cyclopropyl(methyl)amino]ethoxy}phenyl)acetyl]-7-[(3S)-3-[(piperidin-1-yl)methyl]-1,2,3,4-tetrahydroisoquinoline-2-carbonyl]-1,2,3,4-tetrahydroisoquinolin-6-yl}-N-(4-hydroxyphenyl)-1,2-dimethyl-1H-pyrrole-3-carboxamide], the Ki [1] is reported as 0.21 nM, the Ki [2] is reported as 0.06 nM and the “TR_FRET EKI G101V/WT selectivty ratio” value [3] is reported as 6.5. For the same compound, the Ki [4] was 0.4 nM, the Ki [5] was 2.8 nM and the “TR_FRET EKI BCLxL/WT selectivty ratio” value [5] was 49.1. For the same compound, the Ki [6] was 0.24 nM, the “Ratio (G101V/WT)” value [7] was 6.03 and the IC50 [7] was 0.0424 µM. The IC50 [8] was 0.0075 µM and the Ki [9] was 0.73 nM.
`Cc1c(N(C(=O)c2cc(-c3cc4c(cc3C(=O)N3Cc5ccccc5C[C@H]3CN3CCCCC3)CN(C(=O)Cc3ccc(OCCN(C)C5COC5)cc3F)CC4)n(C)c2C)c2ccc(O)cc2)cc(C#N)n1C` [Example 105, N-(5-cyano-1,2-dimethyl-1H-pyrrol-3-yl)-5-{2-[2-(2-fluoro-4-{2-[methyl(oxetan-3-yl)amino]ethoxy}phenyl)acetyl]-7-[(3S)-3-[(piperidin-1-yl)methyl]-1,2,3,4-tetrahydroisoquinoline-2-carbonyl]-1,2,3,4-tetrahydroisoquinolin-6-yl}-N-(4-hydroxyphenyl)-1,2-dimethyl-1H-pyrrole-3-carboxamide] was tested, and the Ki [1] was 0.11 nM, the Ki [2] was 0.05 nM and the “TR_FRET EKI G101V/WT selectivty ratio” value [3] was 4.3. The Ki [4] was 0.2 nM, the Ki [5] was 1.6 nM and the “TR_FRET EKI BCLxL/WT selectivty ratio” value [5] was 32.7. For the same compound, the Ki [6] was 0.12 nM, the “Ratio (G101V/WT)” value [7] was 5.28 and the IC50 [7] was 0.0285 µM. For the same compound, the IC50 [8] was 0.0054 µM and the Ki [9] was 0.22 nM.
In the case of `COc1ncc(N(C(=O)c2cc(-c3cc4c(cc3C(=O)N3Cc5ccccc5C[C@H]3C)CN(C(=O)Cc3ccc(OCCN5CCOCC5)cc3F)CC4)n(C)c2C)c2ccc(O)cc2)cc1F` [Example 111, 5-[2-(2-{2-fluoro-4-[2-(morpholin-4-yl)ethoxy]phenyl}acetyl)-7-{[(3R)-3-methyl-3,4-dihydro-1H-isoquinolin-2-yl]carbonyl}-3,4-dihydro-1H-isoquinolin-6-yl]-N-(5-fluoro-6-methoxypyridin-3-yl)-N-(4-hydroxyphenyl)-1,2-dimethylpyrrole-3-carboxamide], the Ki [1] is reported as 0.59 nM, the Ki [2] is reported as 0.15 nM and the “TR_FRET EKI G101V/WT selectivty ratio” value [3] is reported as 5.2. The Ki [4] was 0.8 nM, the Ki [5] was 7.2 nM and the “TR_FRET EKI BCLxL/WT selectivty ratio” value [5] was 48.0. The Ki [6] was 0.4 nM, the “Ratio (G101V/WT)” value [7] was 8.18 and the IC50 [7] was 0.0392 µM. The IC50 [8] was 0.0048 µM and the Ki [9] was 0.79 nM.
`Cc1cc(OCCN2CCOCC2)ccc1CC(=O)N1CCc2cc(-c3cc(C(=O)N(c4ccc(O)cc4)c4cc(C#N)n(C)c4C)c(C)n3C)c(C(=O)N3Cc4ccccc4C[C@H]3CN3CCCCC3)cc2C1` [Example 113, N-(5-cyano-1,2-dimethyl-1H-pyrrol-3-yl)-N-(4-hydroxyphenyl)-1,2-dimethyl-5-[2-(2-{2-methyl-4-[2-(morpholin-4-yl)ethoxy]phenyl}acetyl)-7-[(3S)-3-[(piperidin-1-yl)methyl]-1,2,3,4-tetrahydroisoquinoline-2-carbonyl]-1,2,3,4-tetrahydroisoquinolin-6-yl]-1H-pyrrole-3-carboxamide] was tested, and the Ki [1] was 0.15 nM, the Ki [2] was 0.05 nM and the “TR_FRET EKI G101V/WT selectivty ratio” value [3] was 5.2. For the same compound, the Ki [4] was 0.3 nM, the Ki [5] was 3.6 nM and the “TR_FRET EKI BCLxL/WT selectivty ratio” value [5] was 69.2. The Ki [6] was 0.13 nM, the “Ratio (G101V/WT)” value [7] was 4.38 and the IC50 [7] was 0.0278 µM. For the same compound, the IC50 [8] was 0.0063 µM and the Ki [9] was 0.27 nM.
For `Cc1c(N(C(=O)c2cc(-c3cc4c(cc3C(=O)N3Cc5ccccc5C[C@H]3CN3CCCCC3)CN(C(=O)Cc3ccc(OCCN5CCC(F)CC5)cc3F)CC4)n(C)c2C)c2ccc(O)cc2)cc(C#N)n1C` [Example 115, N-(5-cyano-1,2-dimethyl-1H-pyrrol-3-yl)-5-[2-(2-{2-fluoro-4-[2-(4-fluoropiperidin-1-yl)ethoxy]phenyl}acetyl)-7-[(3S)-3-[(piperidin-1-yl)methyl]-1,2,3,4-tetrahydroisoquinoline-2-carbonyl]-1,2,3,4-tetrahydroisoquinolin-6-yl]-N-(4-hydroxyphenyl)-1,2-dimethyl-1H-pyrrole-3-carboxamide], the Ki [1] was 0.08 nM, the Ki [2] was 0.03 nM and the “TR_FRET EKI G101V/WT selectivty ratio” value [3] was 5.6. For the same compound, the Ki [4] was 0.2 nM, the Ki [5] was 2.8 nM and the “TR_FRET EKI BCLxL/WT selectivty ratio” value [5] was 100.0. For the same compound, the Ki [6] was 0.17 nM, the “Ratio (G101V/WT)” value [7] was 6.05 and the IC50 [7] was 0.0458 µM. For the same compound, the IC50 [8] was 0.0072 µM and the Ki [9] was 0.3 nM.
For `Cc1c(N(C(=O)c2cc(-c3cc4c(cc3C(=O)N3Cc5ccccc5C[C@H]3CN3CCCCC3)CN(C(=O)Cc3ccc(OCCN5CCN(CCF)CC5)cc3F)CC4)n(C)c2C)c2ccc(O)cc2)cc(C#N)n1C` [Example 117, N-(5-cyano-1,2-dimethyl-1H-pyrrol-3-yl)-5-{2-[2-(2-fluoro-4-{2-[4-(2-fluoroethyl)piperazin-1-yl]ethoxy}phenyl)acetyl]-7-[(3S)-3-[(piperidin-1-yl)methyl]-1,2,3,4-tetrahydroisoquinoline-2-carbonyl]-1,2,3,4-tetrahydroisoquinolin-6-yl}-N-(4-hydroxyphenyl)-1,2-dimethyl-1H-pyrrole-3-carboxamide], the Ki [1] was 0.11 nM, the Ki [2] was 0.05 nM and the “TR_FRET EKI G101V/WT selectivty ratio” value [3] was 5.3. The Ki [4] was 0.3 nM, the Ki [5] was 1.7 nM and the “TR_FRET EKI BCLxL/WT selectivty ratio” value [5] was 36.2. The Ki [6] was 0.11 nM, the “Ratio (G101V/WT)” value [7] was 4.09 and the IC50 [7] was 0.033 µM. The IC50 [8] was 0.0081 µM and the Ki [9] was 0.18 nM.
For `Cc1c(N(C(=O)c2cc(-c3cc4c(cc3C(=O)N3Cc5ccccc5C[C@H]3CN3C[C@H]5C[C@H]5C3)CN(C(=O)Cc3ccc(OCCN5CCOCC5)cc3F)CC4)n(C)c2C)c2ccc(O)cc2)cc(C#N)n1C` [Example 120, 5-{7-[(3S)-3-{[cis-3-azabicyclo[3.1.0]hexan-3-yl]methyl}-1,2,3,4-tetrahydroisoquinoline-2-carbonyl]-2-(2-{2-fluoro-4-[2-(morpholin-4-yl)ethoxy]phenyl}acetyl)-1,2,3,4-tetrahydroisoquinolin-6-yl}-N-(5-cyano-1,2-dimethyl-1H-pyrrol-3-yl)-N-(4-hydroxyphenyl)-1,2-dimethyl-1H-pyrrole-3-carboxamide], the Ki [1] was 0.21 nM, the Ki [2] was 0.1 nM and the “TR_FRET EKI G101V/WT selectivty ratio” value [3] was 5.2. For the same compound, the Ki [4] was 0.5 nM, the Ki [5] was 5.3 nM and the “TR_FRET EKI BCLxL/WT selectivty ratio” value [5] was 53.0. For the same compound, the Ki [6] was 0.3 nM, the “Ratio (G101V/WT)” value [7] was 5.83 and the IC50 [7] was 0.0186 µM. For the same compound, the IC50 [8] was 0.0032 µM and the Ki [9] was 0.37 nM.
In the case of `Cc1c(N(C(=O)c2cc(-c3cc4c(cc3C(=O)N3Cc5ccccc5C[C@H]3CN3CCCCC3)CN(C(=O)Cc3ccc(OCCN5CCOC(C)(C)C5)cc3)CC4)n(C)c2C)c2ccc(O)cc2)cc(C#N)n1C` [Example 121, N-(5-cyano-1,2-dimethyl-1H-pyrrol-3-yl)-5-[2-(2-{4-[2-(2,2-dimethylmorpholin-4-yl)ethoxy]phenyl}acetyl)-7-[(3S)-3-[(piperidin-1-yl)methyl]-1,2,3,4-tetrahydroisoquinoline-2-carbonyl]-1,2,3,4-tetrahydroisoquinolin-6-yl]-N-(4-hydroxyphenyl)-1,2-dimethyl-1H-pyrrole-3-carboxamide], the Ki [1] is reported as 0.34 nM, the Ki [2] is reported as 0.16 nM and the “TR_FRET EKI G101V/WT selectivty ratio” value [3] is reported as 3.2. For the same compound, the Ki [4] was 0.5 nM, the Ki [5] was 6 nM and the “TR_FRET EKI BCLxL/WT selectivty ratio” value [5] was 38.5. For the same compound, the Ki [6] was 0.23 nM, the “Ratio (G101V/WT)” value [7] was 5.25 and the IC50 [7] was 0.0397 µM. The IC50 [8] was 0.0076 µM and the Ki [9] was 0.56 nM.
